Laboratory results as given in patent US12180226B2, “Spirotricycle RIPK1 inhibitors and methods of uses thereof” (Merck Sharp & Dohme LLC, priority 2021, dated 2024).
Where a name gives a salt, the structure may show the parent alone.

Molecular target: RIPK1 (recombinant GST-RIPK1 kinase domain, residues 1-327) (Homo sapiens (Human), UniProt Q13546)
Assay: RIPK1-ADP-Glo Enzymatic Assay
Assay type: biochemical
Details: ADP-Glo; 25 nM GST-RIPK1, 300 μM ATP; assay lower limit ~25 nM; read-out: RIPK1 V0 Ec50
In short: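 Inhibition of ADP formation was measured after compound and enzyme (25 nM) were pre-incubated for 30 minutes at ambient temperature and the kinase reaction ran for 150 minutes at 300 μM ATP with dephosphorylated MBP substrate. EC50 values come from ten-point curves fitted non-linearly.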

RIPK1 (recombinant GST-RIPK1 kinase domain, residues 1-327), sequence (Q13546 1-327): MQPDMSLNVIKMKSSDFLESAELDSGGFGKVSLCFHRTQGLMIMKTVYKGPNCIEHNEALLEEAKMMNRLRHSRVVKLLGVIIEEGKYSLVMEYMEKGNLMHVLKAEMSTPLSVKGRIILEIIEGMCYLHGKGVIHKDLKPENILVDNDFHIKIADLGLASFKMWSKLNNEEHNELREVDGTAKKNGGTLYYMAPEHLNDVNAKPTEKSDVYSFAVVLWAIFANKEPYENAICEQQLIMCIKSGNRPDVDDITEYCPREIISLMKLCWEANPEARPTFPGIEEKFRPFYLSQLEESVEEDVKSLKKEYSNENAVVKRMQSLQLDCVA

Row | SMILES | EC50 [nM]
1 | O=C(c1ncc(F)cc1F)N1CCC2(CC1)O[C@@H]1CC[C@@H](c3cc(F)cc(F)c3)N1C2=O [Example 6.89, (5′S,7a′R)-5′-(3,5-difluorophenyl)-1-(3,5-difluoropyridine-2-carbonyl)tetrahydro-3′H-spiro[piperidine-4,2′-pyrrolo[2,1-b] [1,3]oxazol]-3′-one] | 35.4
2 | O=C(c1ccccc1)N1CCC2(CC1)O[C@@H]1CC[C@@H](c3cnccn3)N1C2=O [Example 17.1, (5′S,7a′R)-1-benzoyl-5′-(pyrazin-2-yl)tetrahydro-3′H-spiro[piperidine-4,2′-pyrrolo[2,1-b]oxazol]-3′-one, TFA] | 34.4
3 | Cc1nccnc1[C@@H]1CC[C@H]2OC3(CCN(c4ccnc5c(F)cnn45)CC3)C(=O)N21 [Example 4.144, (5′S,7a′R)-1-(3-fluoropyrazolo[1,5-a]pyrimidin-7-yl)-5′-(3-methylpyrazin-2-yl)tetrahydro-3′H-spiro[piperidine-4,2′-pyrrolo[2,1-b] [1,3]oxazol]-3′-one] | 41.7
4 | O=C1N2[C@@H](CC[C@H]2c2cc(F)cc(F)c2)OC12CCN(c1ccc(F)c3ccnn13)CC2 [Example 16.1, (5′S,7a′R)-5′-(3,5-difluorophenyl)-1-(4-fluoropyrazolo[1,5-a]pyridin-7-yl)tetrahydro-3′H-spiro[piperidine-4,2′-pyrrolo[2,1-b]oxazol]-3′-one, TFA salt] | < 25
5 | O=C1N2[C@H](CC13CCN(c1cc(F)ccn1)CC3)OC[C@H]2c1ccccc1 [Example 11.2, (3′R,7a′S)-1-(4-fluoropyridin-2-yl)-3′-phenyltetrahydro-5′H-spiro[piperidine-4,6′-pyrrolo[2,1-b][1,3]oxazol]-5′-one] | 295
6 | COc1nc(N2CCC3(CC2)O[C@@H]2CC[C@@H](c4ccccc4)N2C3=O)ncc1-c1ncco1 [Example 21.10, (5′S,7a′R)-1-[4-methoxy-5-(1,3-oxazol-2-yl)pyrimidin-2-yl]-5′-phenyltetrahydro-3′H-spiro[piperidine-4,2′-pyrrolo[2,1-b][1,3]oxazol]-3′-one] | < 25
7 | CC(C)NC(=O)c1nc(N2CCC3(CC2)O[C@@H]2CC[C@@H](c4cc(F)cc(F)c4)N2C3=O)ncc1F [Example 7.14, 2-[(5′S,7a′R)-5′-(3,5-difluorophenyl)-3′-oxotetrahydro-1H,3′H-spiro[piperidine-4,2′-pyrrolo[2,1-b][1,3]oxazol]-1-yl]-5-fluoro-N-(propan-2-yl)pyrimidine-4-carboxamide] | 69.8
8 | COC(=O)c1cc(C)c(N2CCC3(CC2)O[C@@H]2CC[C@@H](c4ccccc4)N2C3=O)nc1C#N [Example 4.188, methyl 2-cyano-5-methyl-6-[(5′S,7a′R)-3′-oxo-5′-phenyltetrahydro-1H,3′H-spiro[piperidine-4,2′-pyrrolo[2,1-b] [1,3]oxazol]-1-yl]pyridine-3-carboxylate] | 540
9 | CC1CC2(CCN1C(=O)c1ccccc1)O[C@@H]1CC[C@@H](c3cc(F)cc(F)c3)N1C2=O (stereo partly drawn) [Example 6.105, (4R,5′S,7a′R)-1-(benzenecarbonyl)-5′-(3,5-difluorophenyl)-2-methyltetrahydro-3′H-spiro[piperidine-4,2′-pyrrolo[2,1-b] [1,3]oxazol]-3′-one] | 841
10 | O=C1N2[C@@H](CC[C@H]2c2cc(F)cc(F)c2)OC12CCN(S(=O)(=O)c1ccccc1)CC2 [Example 8.1, (5′S,7a′R)-5′-(3,5-Difluorophenyl)-1-(phenylsulfonyl)tetrahydro-3′H-spiro[piperidine-4,2′-pyrrolo[2,1-b]oxazol]-3′-one] | 728
11 | Cc1cc(N2CCC3(CC2)O[C@@H]2CC[C@@H](c4ccccc4)N2C3=O)cs1 [Example 11.10, (5′S,7a′R)-1-(5-methylthiophen-3-yl)-5′-phenyltetrahydro-3′H-spiro[piperidine-4,2′-pyrrolo[2,1-b][1,3]oxazol]-3′-one] | 253
